Assay results reported in patent US3937830A, “5-Pivaloyloxy-5-(1-phenylethyl) barbituric acid, analgetic composition and method based thereon” (The Kendall Company, priority 1974, dated 1976).
Like-named read-outs stand apart in the source and are kept apart here.

Assays:
[1] = Therapeutic index (LD50 divided by ED50); parameters: species or system adult albino male mice (Charles River strain); details: mouse, in vivo; oral LD50 / oral hot-plate ED50, mice
Experimental: By therapeutic index is meant the LD50 of a compound divided by its ED50, or the dose required to kill one-half of the test animals divided by the dose required to produce the desired therapeutic effect in one-half of the test animals. It will be apparent that the larger the therapeutic index, the greater the margin of safety and the more desirable the drug.
(§1) All tests were conducted on adult albino male mice (Charles River strain); the dosage consisted of the active agent suspended in 10% aqueous acacia and was administered orally and/or subcutaneously as indicated.
(§2) Acute oral toxicity was determined in the conventional manner. The results were expressed as LD50, the dose required to produce death in 50% of the animals treated, determined graphically, with the 95% limits shown in parentheses.
Two established procedures were employed to determine analgetic activity. The method described by Eddy, N. B., and Leimbach, D., J. Pharmacol. Exptl. Therap. 107, 385 (1953) was followed, with the following modifications, in the first procedure. Mice are pretested by placing them individually on the cleaned surface of a copper water bath, the temperature of which is maintained at 54°-55°C. The reaction time of this noxious thermal stimulus is the time in seconds required for either licking of the paws or jumping, such that all four paws leave the surface of the plate. […]

[2] = Phenyl-p-quinone writhing (Siegmund); assay type: in vivo, adult albino male mice (Charles River strain); details: oral, mice, not dose-related
Experimental: as §1
In the second procedure, the method of Siegmund, E., et al. reported in Proc. Soc. Exptl. Biol. and Med. 95, 729, (1957) was generally followed. The method is based on the antagonism by both non-narcotic and narcotic analgetics of a syndrome induced in mice following intraperitoneal injection of phenyl-p-quinone. The syndrome is characterized by intermittent contractions of the abdomen, twisting and turning of the trunk, and extension of the hind legs, beginning 3 to 10 minutes after the injection and persisting for more than one hour. The test drug is administered orally at four to five dosage levels. At the time of peak activity, 0.25 ml. of a 0.02 per cent solution of phenyl-p-quinone in 5 per cent (aqueous) ethyl alcohol is injected intraperitoneally. Inhibition of the syndrome is considered an analgetic response.

[3] = Hot-plate analgetic activity (Eddy and Leimbach, modified); assay type: in vivo, adult albino male mice (Charles River strain); details: for ED50: Mus musculus, mice
Experimental: as §1
Two established procedures were employed to determine analgetic activity. The method described by Eddy, N. B., and Leimbach, D., J. Pharmacol. Exptl. Therap. 107, 385 (1953) was followed, with the following modifications, in the first procedure. Mice are pretested by placing them individually on the cleaned surface of a copper water bath, the temperature of which is maintained at 54°-55°C. The reaction time of this noxious thermal stimulus is the time in seconds required for either licking of the paws or jumping, such that all four paws leave the surface of the plate. The drug is then administered orally or subcutaneously, generally at five dosage levels, (10 mice per dosage level) and the reaction times are redetermined at intervals of 1/2 hour, 1 hour, and 2 hours; the time of peak activity is the time at which the greatest number of animals is protected. From the pretreatment reaction times the mean and standard deviations are computed. The cut-off time is taken to be the mean reaction time plus 2 standard deviation units. Reaction times equal to or exceeding this cut-off time are considered to represent analgetic responses. The dosage required to produce an analgetic response in 50% of the animals (ED50 and 95% limits) is computed graphically.

[4] = Acute oral toxicity in mice; parameters: species or system adult albino male mice (Charles River strain); details: mouse, in vivo, 95% limits in parentheses
Experimental: as §1, §2

For CC(c1ccccc1)C1(OC(=O)C(C)(C)C)C(=O)NC(=O)NC1=O (centres unmarked) [5-pivaloyloxy-5-(1-phenylethyl) barbituric acid], the selectivity ratio [1] was over 230, the “Phenyl-p-quinone Writhing, % active” value ([2]; 100 mg/kg) was 26% and the “Phenyl-p-quinone Writhing, % active” value ([2]; 200 mg/kg) was 30%. The “Phenyl-p-quinone Writhing, % active” value ([2]; 400 mg/kg) was 10%, the ED50 ([3]; sc, subcutaneous, not dose-related, read-out: Hot-Plate ED50 (subcutaneous)) was 40 to 80 mg/kg and the ED50 ([3]; oral, read-out: Hot-Plate ED50 (oral)) was under 3.1 mg/kg. The “Time of Peak Activity” value ([3]; time at which the greatest number of animals is protected) was 1/2 and the LD50 [4] was 690 mg/kg.
